From PubChem BioAssay AID192 (DTP/NCI, 2004)
“And” between values parts separate entries of the source, which are not always exact repeats. Identical values can stand only once. Toxic doses and inconclusive results are not listed.

Test system: BDF1 mice, B16 melanoma ip, median survival T/C
Experiment: NCI In Vivo Anticancer Drug Screen. Data for tumor model B16 Melanoma (intraperitoneal) in B6D2F1 (BDF1) mice
Conditions: endpoint: median survival time, higher = longer survival
Procedure, shortened: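 In this screen, activity was judged from survival or tumor size in treated versus vehicle-treated tumor-bearing mice, reported as T/C.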

[1] = dose: 100.0 mg/kg/injection, schedule: Q01DX009 (ip), vehicle: saline with Tween-80
[2] = dose: 200.0 mg/kg/injection, schedule: Q01DX009 (ip), vehicle: saline with Tween-80

## C=CC12COC(=O)C(=C)C1C1OC(=O)C(=C)C1C(O)C2 (stereo not drawn)
dose: 0.93 mg/kg/injection, schedule: Q01DX009 (ip), vehicle: Klucel (hydroxypropylcellulose) (HPC)
  T/C: 95 % of control
dose: 1.87 mg/kg/injection, schedule: Q01DX009 (ip), vehicle: Klucel (hydroxypropylcellulose) (HPC)
  T/C: 104 % of control
dose: 3.75 mg/kg/injection, schedule: Q01DX009 (ip), vehicle: Klucel (hydroxypropylcellulose) (HPC)
  T/C: 101 % of control
dose: 7.5 mg/kg/injection, schedule: Q01DX009 (ip), vehicle: Klucel (hydroxypropylcellulose) (HPC)
  T/C: 98 % of control

## Nc1ccccc1SC1CC(=O)N(c2cccc3ccccc23)C1=O (stereo not drawn)
dose: 1.56 mg/kg/injection, schedule: Q01DX009 (ip), vehicle: Klucel (hydroxypropylcellulose) (HPC)
  T/C: 98 % of control
dose: 3.12 mg/kg/injection, schedule: Q01DX009 (ip), vehicle: Klucel (hydroxypropylcellulose) (HPC)
  T/C: 96 % of control
dose: 6.25 mg/kg/injection, schedule: Q01DX009 (ip), vehicle: Klucel (hydroxypropylcellulose) (HPC)
  T/C: 88 % of control and 94 % of control
dose: 12.5 mg/kg/injection, schedule: Q01DX009 (ip), vehicle: Klucel (hydroxypropylcellulose) (HPC)
  T/C: 86 % of control
dose: 100.0 mg/kg/injection, schedule: Q01DX009 (ip), vehicle: Klucel (hydroxypropylcellulose) (HPC)
  T/C: 94 % of control and 96 % of control
dose: 100.0 mg/kg/injection, schedule: Q04DX003 (ip), vehicle: Klucel (hydroxypropylcellulose) (HPC)
  T/C: 100 % of control
dose: 200.0 mg/kg/injection, schedule: Q01DX009 (ip), vehicle: Klucel (hydroxypropylcellulose) (HPC)
  T/C: 92 % of control
dose: 200.0 mg/kg/injection, schedule: Q04DX003 (ip), vehicle: Klucel (hydroxypropylcellulose) (HPC)
  T/C: 100 % of control
dose: 400.0 mg/kg/injection, schedule: Q01DX009 (ip), vehicle: Klucel (hydroxypropylcellulose) (HPC)
  T/C: 92 % of control
dose: 400.0 mg/kg/injection, schedule: Q04DX003 (ip), vehicle: Klucel (hydroxypropylcellulose) (HPC)
  T/C: 93 % of control

## O=S(=O)(OCC(COS(=O)(=O)c1ccccc1)(COS(=O)(=O)c1ccccc1)COS(=O)(=O)c1ccccc1)c1ccccc1
dose: 50.0 mg/kg/injection, schedule: Q01DX009 (ip), vehicle: saline with Tween-80
  T/C: 110 % of control
[1]
  T/C: 97 % of control
[2]
  T/C: 110 % of control

## C=C(C)C12OC3(CCCCCCCCC)OC1C1C4OC4(COC(=O)CCCCCCCCCCCCCCC)C(O)C4(O)C(=O)C(C)=CC4C1(O3)C(C)C2OC(=O)c1ccccc1 (stereo not drawn)
dose: 0.5 micrograms/kg/injection, schedule: Q01DX009 (ip), vehicle: saline
  T/C: 102 % of control
dose: 1.0 micrograms/kg/injection, schedule: Q01DX009 (ip), vehicle: saline
  T/C: 105 % of control
dose: 1.9 micrograms/kg/injection, schedule: Q01DX009 (ip), vehicle: saline
  T/C: 91 % of control
dose: 3.8 micrograms/kg/injection, schedule: Q01DX009 (ip), vehicle: saline
  T/C: 110 % of control
dose: 7.5 micrograms/kg/injection, schedule: Q01DX009 (ip), vehicle: saline
  T/C: 91 % of control
dose: 15.0 micrograms/kg/injection, schedule: Q01DX009 (ip), vehicle: saline
  T/C: 100 % of control
dose: 30.0 micrograms/kg/injection, schedule: Q01DX009 (ip), vehicle: saline
  T/C: 100 % of control

## Nc1ccc(C(=O)O)c(O)c1
dose: 9.3 mg/kg/injection, schedule: Q01DX009 (ip), vehicle: saline with Tween-80
  T/C: 98 % of control
dose: 18.7 mg/kg/injection, schedule: Q01DX009 (ip), vehicle: saline with Tween-80
  T/C: 99 % of control
dose: 37.5 mg/kg/injection, schedule: Q01DX009 (ip), vehicle: saline with Tween-80
  T/C: 98 % of control
dose: 75.0 mg/kg/injection, schedule: Q01DX009 (ip), vehicle: saline with Tween-80
  T/C: 89 % of control

## O=[N+]([O-])c1cc(Cl)cc2c1nc(NCCO)c1ccccc12
dose: 12.5 mg/kg/injection, schedule: Q01DX009 (ip), vehicle: saline with Tween-80
  T/C: 97 % of control
dose: 25.0 mg/kg/injection, schedule: Q01DX009 (ip), vehicle: saline with Tween-80
  T/C: 97 % of control

## CC[n+]1ccc(Nc2ccc(NC(=O)c3ccc(C(=O)Nc4ccc(Nc5cc[n+](CC)c(N)n5)cc4)cc3)cc2)nc1N
dose: 25.0 mg/kg/injection, schedule: Q01DX009 (ip), vehicle: suspension in saline
  T/C: 162 % of control
dose: 50.0 mg/kg/injection, schedule: Q01DX009 (ip), vehicle: suspension in saline
  T/C: 163 % of control

## CCOC(=O)C(=CN1CCCC1)C(=O)OCC
[1]
  T/C: 102 % of control
dose: 100.0 mg/kg/injection, schedule: Q04DX003 (ip), vehicle: saline with Tween-80
  T/C: 120 % of control
[2]
  T/C: 105 % of control
dose: 200.0 mg/kg/injection, schedule: Q04DX003 (ip), vehicle: saline with Tween-80
  T/C: 117 % of control
dose: 400.0 mg/kg/injection, schedule: Q01DX009 (ip), vehicle: saline with Tween-80
  T/C: 91 % of control
dose: 400.0 mg/kg/injection, schedule: Q04DX003 (ip), vehicle: saline with Tween-80
  T/C: 111 % of control
